What follows are compounds tested on HDQ-P1 (assay: drug sensitivity score (DSS), CellTox Green (DSS (AUC-based score)); higher = stronger drug effect (viability inhibition or cytotoxicity); extreme values may be limits of the assay). Details: incubation time: 72 h.
How it was run: (§1)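 For 72 h, breast cancer cell lines seeded at 20 µl suspension per well in 384-well plates were incubated with compound at 5 concentrations in 10-fold steps spanning a 10,000-fold range that differed by compound. The first reading was CellTox Green fluorescence at 485/520 nm, and the second was CellTiter-Glo luminescence after 10 min at room temperature. Both were normalised per plate to 0.1 % DMSO and a positive kill control, and the drug sensitivity score was obtained from the area under the fitted dose-response curve.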

For COc1cc2nccc(Oc3ccc(NC(=O)Nc4cc(C)on4)c(Cl)c3)c2cc1OC [Tivozanib], the drug sensitivity score was 0.

Each compound was assayed on Hs578T in the same assay as above. Details: incubation time: 72 h.
How it was run: as §1

Compared with CC(=O)Nc1cccc(-n2c(=O)n(C3CC3)c(=O)c3c(Nc4ccc(I)cc4F)n(C)c(=O)c(C)c32)c1 [Trametinib], COc1cc2nccc(Oc3ccc(NC(=O)Nc4cc(C)on4)c(Cl)c3)c2cc1OC [Tivozanib] is higher in drug sensitivity score: 0 for the first, 3.86 for the second.

Going from C=CCc1cccc(/C=N/NC(=O)CN2CCN(Cc3ccccc3)CC2)c1O [PAC-1] to CC[C@@H]1C(=O)N(C)c2cnc(Nc3ccc(C(=O)NC4CCN(C)CC4)cc3OC)nc2N1C1CCCC1 [BI 2536], the drug sensitivity score rises from 0 to 4.87.

Nc1nc(F)nc2c1ncn2[C@@H]1O[C@H](CO)[C@@H](O)[C@@H]1O [Fludarabine] and Nc1ncn([C@H]2C[C@H](O)[C@@H](CO)O2)c(=O)n1 [Decitabine] are the same in drug sensitivity score: 0 for the first, 0 for the second.

First: CC[C@H](C)C(=O)O[C@H]1C[C@H](O)C=C2C=C[C@H](C)[C@H](CC[C@@H](O)C[C@@H](O)CC(=O)O)[C@H]21 [Pravastatin]
Second: COc1cc([C@@H]2c3cc4c(cc3[C@@H](O[C@@H]3O[C@@H]5CO[C@@H](c6cccs6)O[C@H]5[C@H](O)[C@H]3O)[C@H]3COC(=O)[C@H]23)OCO4)cc(OC)c1O [Teniposide]
The drug sensitivity score of the first is lower: 0 for the first, 2.53 for the second.

For O=C(O)C(=O)O.[NH-][C@@H]1CCCC[C@H]1[NH-].[Pt+2] [Oxaliplatin], the drug sensitivity score was 0.

These compounds were tested on MCF-10A in the same assay as above. Details: incubation time: 72 h.
How it was run: as §1

Going from CC(=O)Nc1cccc(-n2c(=O)n(C3CC3)c(=O)c3c(Nc4ccc(I)cc4F)n(C)c(=O)c(C)c32)c1 [Trametinib] to COc1cc2nccc(Oc3ccc(NC(=O)Nc4cc(C)on4)c(Cl)c3)c2cc1OC [Tivozanib], the drug sensitivity score falls from 4.18 to 0.

C=CCc1cccc(/C=N/NC(=O)CN2CCN(Cc3ccccc3)CC2)c1O [PAC-1] and CCc1cncnc1N1CCN(Cc2nc3ccc(C(F)(F)F)cc3[nH]2)CC1 are the same in drug sensitivity score: 0 for the first, 0 for the second.

Nc1nc(F)nc2c1ncn2[C@@H]1O[C@H](CO)[C@@H](O)[C@@H]1O [Fludarabine] and Nc1ncn([C@H]2C[C@H](O)[C@@H](CO)O2)c(=O)n1 [Decitabine] are the same in drug sensitivity score: 0 for the first, 0 for the second.

Compared with CC[C@@H]1C(=O)N(C)c2cnc(Nc3ccc(C(=O)NC4CCN(C)CC4)cc3OC)nc2N1C1CCCC1 [BI 2536], COc1cc2c(NC3CCN(C(C)C)CC3)nc(C3CCCCC3)nc2cc1OCCCN1CCCC1 [UNC0638] is lower in drug sensitivity score: 10.3 for the first, 7.41 for the second.

Compared with CC[C@H](C)C(=O)O[C@H]1C[C@H](O)C=C2C=C[C@H](C)[C@H](CC[C@@H](O)C[C@@H](O)CC(=O)O)[C@H]21 [Pravastatin], CCN(CC)CCCC(C)Nc1c2ccc(Cl)cc2nc2ccc(OC)cc12 (stereo not drawn) [Mepacrine] is lower in drug sensitivity score: 2.17 for the first, 0 for the second.

Going from O=C(O)C(=O)O.[NH-][C@@H]1CCCC[C@H]1[NH-].[Pt+2] [Oxaliplatin] to Cc1ccc(-c2cc(C(F)(F)F)nn2-c2ccc(S(N)(=O)=O)cc2)cc1 [Celecoxib], the drug sensitivity score falls from 1.93 to 0.

These compounds were tested on MDA-MB-231 in the same assay as above. Details: incubation time: 72 h.
How it was run: as §1

First: CC(=O)Nc1cccc(-n2c(=O)n(C3CC3)c(=O)c3c(Nc4ccc(I)cc4F)n(C)c(=O)c(C)c32)c1 [Trametinib]
Second: COc1cc2nccc(Oc3ccc(NC(=O)Nc4cc(C)on4)c(Cl)c3)c2cc1OC [Tivozanib]
The drug sensitivity score of the first is higher: 12 for the first, 0 for the second.

C=CCc1cccc(/C=N/NC(=O)CN2CCN(Cc3ccccc3)CC2)c1O [PAC-1] and CCc1cncnc1N1CCN(Cc2nc3ccc(C(F)(F)F)cc3[nH]2)CC1 are the same in drug sensitivity score: 0 for the first, 0 for the second.

Nc1nc(F)nc2c1ncn2[C@@H]1O[C@H](CO)[C@@H](O)[C@@H]1O [Fludarabine] and Nc1ncn([C@H]2C[C@H](O)[C@@H](CO)O2)c(=O)n1 [Decitabine] are the same in drug sensitivity score: 0 for the first, 0 for the second.

Going from CC[C@@H]1C(=O)N(C)c2cnc(Nc3ccc(C(=O)NC4CCN(C)CC4)cc3OC)nc2N1C1CCCC1 [BI 2536] to COc1cc2c(NC3CCN(C(C)C)CC3)nc(C3CCCCC3)nc2cc1OCCCN1CCCC1 [UNC0638], the drug sensitivity score falls from 9.92 to 9.02.

Compared with CC[C@H](C)C(=O)O[C@H]1C[C@H](O)C=C2C=C[C@H](C)[C@H](CC[C@@H](O)C[C@@H](O)CC(=O)O)[C@H]21 [Pravastatin], CCN(CC)CCCC(C)Nc1c2ccc(Cl)cc2nc2ccc(OC)cc12 (stereo not drawn) [Mepacrine] is higher in drug sensitivity score: 4.52 for the first, 5 for the second.

Compared with O=C(O)C(=O)O.[NH-][C@@H]1CCCC[C@H]1[NH-].[Pt+2] [Oxaliplatin], COc1cc([C@@H]2c3cc4c(cc3[C@@H](O[C@@H]3O[C@@H]5CO[C@@H](c6cccs6)O[C@H]5[C@H](O)[C@H]3O)[C@H]3COC(=O)[C@H]23)OCO4)cc(OC)c1O [Teniposide] is higher in drug sensitivity score: 0 for the first, 10.8 for the second.

Cc1ccc(-c2cc(C(F)(F)F)nn2-c2ccc(S(N)(=O)=O)cc2)cc1 [Celecoxib] gave a drug sensitivity score of 0.

These compounds were tested on MDA-MB-436 in the same assay as above. Details: incubation time: 72 h.
How it was run: as §1

CC(=O)Nc1cccc(-n2c(=O)n(C3CC3)c(=O)c3c(Nc4ccc(I)cc4F)n(C)c(=O)c(C)c32)c1 [Trametinib] and CC[C@@H]1C(=O)N(C)c2cnc(Nc3ccc(C(=O)NC4CCN(C)CC4)cc3OC)nc2N1C1CCCC1 [BI 2536] are the same in drug sensitivity score: 0 for the first, 0 for the second.

C=CCc1cccc(/C=N/NC(=O)CN2CCN(Cc3ccccc3)CC2)c1O [PAC-1] and CCN(CC)CCCC(C)Nc1c2ccc(Cl)cc2nc2ccc(OC)cc12 (stereo not drawn) [Mepacrine] are the same in drug sensitivity score: 0 for the first, 0 for the second.

Nc1nc(F)nc2c1ncn2[C@@H]1O[C@H](CO)[C@@H](O)[C@@H]1O [Fludarabine] and Nc1ncn([C@H]2C[C@H](O)[C@@H](CO)O2)c(=O)n1 [Decitabine] are the same in drug sensitivity score: 0 for the first, 0 for the second.

Going from CC[C@H](C)C(=O)O[C@H]1C[C@H](O)C=C2C=C[C@H](C)[C@H](CC[C@@H](O)C[C@@H](O)CC(=O)O)[C@H]21 [Pravastatin] to O=C(O)C(=O)O.[NH-][C@@H]1CCCC[C@H]1[NH-].[Pt+2] [Oxaliplatin], the drug sensitivity score falls from 32.8 to 0.
